In US5714127A, “System for multiple simultaneous synthesis” (Warner-Lambert Company, priority 1995, dated 1998):

Each compound was assayed against benzodiazepine receptor (assay: benzodiazepine receptor binding assay (NovaScreen), [3H]Flunitrazipam radioligand). Conditions: commercially available reference samples (Table 3 footnote).
Set-up: species or system bovine
Source text: After the final compounds are formed using the inventive reaction apparatus, method and system, they are individually tested for biological activity once they are isolated. For example, the method of Sweetnam, et al, Molecular Pharmacology 1986; 29:299 employing bovine cortical membranes as a receptor source and a radiolabeled benzodiazepine, such as Flunitrazepam, to determine competitive ligand binding to the benzodiazepine receptor (central [brain] localized) and some quantitative measure of relative binding potency such as KD or IC50 values. Performing this type of assay serves two purposes: 1) to discover new compounds with biological activity in a given biological screening assay and 2) the development of a relationship between the structural variations contained within the series and biological potency. This second utility is known as development of a structure activity relationship (SAR). This type of assay can be done using the compounds isolated from the array synthesis for any receptor binding screen or assay (screening for receptor agonists or antagonists), enzyme functional assays (measuring competitive or noncompetitive inhibition of the catalyzed reaction), and the like. This strategy may be used to screen for pharmaceutical agents, veterinary agents, agricultural agents, diagnostic reagents, and the like.
To verify that the compounds produced could be used directly in a biological assay, the crude benzodiazepines are tested for activity in a benzodiazepine receptor binding assay without further purification. (The assay was performed using the commercially available NovaScreen® assay system contracted by Scios-Nova Pharmaceutical Corp., Baltimore, Md., whereby bovine cortical membrane preparations were used as the source of receptor and the radioligand employed was [^3 H]Flunitrazipam while the positive control was Clonazepam.) The calculated IC50 's from three concentrations (average of two determinations) for the individual compounds are shown in Table 3.
Compound `CN1C(=O)CN=C(c2ccccc2)c2cc(Cl)ccc21` [Diazepam, reference compound] has an IC50 of 0.00067 µM.

Same assay, conditions: crude benzodiazepines without further purification; bovine cortical membranes; [3H]Flunitrazipam; calculated from three concentrations (average of two determinations)
With `CC1N=C(c2ccccc2)c2ccccc2NC1=O` (stereo not drawn) [Number 1] the IC50 was 5.79 µM.
With `CC1N=C(c2ccccc2)c2cc(Cl)ccc2NC1=O` (stereo not drawn) [Number 2] the IC50 was 0.089 µM.
For `CC1N=C(c2ccccc2)c2cc([N+](=O)[O-])ccc2NC1=O` (stereo not drawn) [Number 4], the IC50 was 0.482 µM.
For `CC1N=C(c2ccccc2)c2cc([N+](=O)[O-])ccc2N(C)C1=O` (stereo not drawn) [Number 6], the IC50 was 1 µM.
With `CC1N=C(c2cccs2)c2ccccc2NC1=O` (stereo not drawn) [Number 8] the IC50 was 5.9 µM.
Compound `O=C1CN=C(c2ccccc2)c2ccccc2N1` [Number 9] has an IC50 of 0.515 µM.
Work on `O=C1CN=C(c2ccccc2)c2cc(Cl)ccc2N1` [Number 10] yielded an IC50 of 0.032 µM.
Work on `COc1ccc(C2=NCC(=O)Nc3ccccc32)cc1` [Number 11] yielded an IC50 of 28.3 µM.
With `O=C1CN=C(c2ccccc2)c2cc([N+](=O)[O-])ccc2N1` [Number 12] the IC50 was 0.016 µM.
`Cc1ccc2c(c1)N(C(C)C)C(=O)CN=C2c1ccccc1` [Number 13] gave an IC50 of 18.6 µM.
Compound `CN1C(=O)CN=C(c2ccccc2)c2cc([N+](=O)[O-])ccc21` [Number 14] has an IC50 of 0.064 µM.
`O=C1CN=C(C2CCCCC2)c2ccccc2N1` [Number 15] gave an IC50 of 25.7 µM.
For `O=C1CN=C(c2cccs2)c2ccccc2N1` [Number 16], the IC50 was 1.12 µM.
In the case of `O=C1Nc2ccc([N+](=O)[O-])cc2C(c2ccccc2)=NC1Cc1c[nH]c2ccccc12` (stereo not drawn) [Number 20], the IC50 is reported as 12.7 µM.

Same assay, conditions: crude benzodiazepines without further purification; bovine cortical membranes; [3H]Flunitrazipam; cells that print their own unit mM
With `COc1ccc(C2=NC(C)C(=O)Nc3ccccc32)cc1` (stereo not drawn) [Number 3] the IC50 was over 1000 µM.
In the case of `Cc1ccc2c(c1)N(C(C)C)C(=O)C(C)N=C2c1ccccc1` (stereo not drawn) [Number 5], the IC50 is reported as over 1000 µM.
Work on `CC1N=C(C2CCCCC2)c2ccccc2NC1=O` (stereo not drawn) [Number 7] yielded an IC50 of over 1000 µM.
With `O=C1Nc2ccccc2C(c2ccccc2)=NC1Cc1c[nH]c2ccccc12` (stereo not drawn) [Number 17] the IC50 was over 1000 µM.
Work on `O=C1Nc2ccc(Cl)cc2C(c2ccccc2)=NC1Cc1c[nH]c2ccccc12` (stereo not drawn) [Number 18] yielded an IC50 of over 1000 µM.
For `COc1ccc(C2=NC(Cc3c[nH]c4ccccc34)C(=O)Nc3ccccc32)cc1` (stereo not drawn) [Number 19], the IC50 was over 1000 µM.
